The values below come from patent US20110201648A1, “POLY-HETEROARYL DERIVATIVES FOR THE TREATMENT OF CANCER” (INSTITUT CURIE, priority 2008, published 2011).

Where only a bound is given, the exact number is not on record here.

In general, melting point refers to the temperature of the solid-liquid transition. Regarding `c1cc(-c2cnco2)cc(-c2ncc(-c3cccc(-c4cnc(-c5cccc(-c6cnco6)c5)o4)n3)o2)c1` [compound 5, 2,6-Bis(2-(3-(oxazol-5-yl)phenyl)oxazol-5-yl)pyridine], the melting point lay within 254 to 256 °C. Regarding `c1cc(-c2cnc(-c3cccc(-c4cnco4)n3)o2)cc(-c2cnc(-c3cccc(-c4cnco4)n3)o2)c1` [compound 4, 1,3-Bis(2-(6-(oxazol-5-yl)pyridin-2-yl)oxazol-5-yl)benzene], the melting point was more than 250 °C. As for `c1ccc(-c2ncc(-c3cccc(-c4cnc(-c5ccccn5)o4)n3)o2)nc1` [compound 1, 2,6-Bis[2-(pyridin-2-yl)oxazol-5-yl]pyridine], the figure is 242 to 245 °C; as for `c1cc(-c2cnc(-c3ccc(-c4cnco4)o3)o2)nc(-c2cnc(-c3ccc(-c4cnco4)o3)o2)c1` [compound 6, 2,6-Bis(2-(5-(oxazol-5-yl)furan-2-yl)oxazol-5-yl)pyridine], more than 250 °C.
